Patent US20210238184A1, “THERAPEUTIC COMPOUNDS” (Genentech, Inc., priority 2018, published 2021)

Legend:
TEAD2 YAP50-100 = TEAD2 YAP50-100 (Homo sapiens, UniProt Q15562); assay: TEAD2:YAP50-100 protein-protein interaction HTRF (TR-FRET) assay; conditions: His-tagged TEAD YAP binding domain (aa 217-447), biotinylated YAP peptide aa 50-100; 30 min pre-incubation, 60 min at room temperature; read-out: TEAD2 YAP50-100 HTRF WuXi EC50
Method: (§1) Purified His-tagged TEAD protein (YAP Binding Domain, amino acids 217-447) is pre-incubated with Europium labelled anti-His antibody tracer (Perkin Elmer Cat #AD0110). Small molecule Inhibitors are then incubated with the TEAD-Eu protein complex for 30 minutes to allow for binding to TEAD protein. Biotinylated YAP peptide (AA's 50-100) that has been pre-incubated with streptavidin x1665 acceptor (CIS-Bio Cat #610SAXAC) is added to the compound-TEAD mix. The TEAD-YAP-inhibitor mixture is then incubated for 60 minutes at room temperature. All reactions are carried out in a polystyrene plate. After 60 minutes, the plate is read on a plate reader using TR-FRET mode with wavelengths of 665 nm/615 nm. If YAP binds to TEAD as expected, a TR-FRET signal results from the proximity of YAP and TEAD after binding. If an inhibitor such as peptide 17 (Selleckchem Cat #S8164) interferes with YAP-TEAD binding, the disruption of the YAP:TEAD interaction results in a decrease in TR-FRET signal. The potency of compounds as YAP:TEAD protein-protein interaction (PPi) inhibitors is determined by an IC50 or EC50 value generated using a non-linear four parameter curve fit.

TEAD3 YAP50-100 = TEAD3 YAP50-100 (Homo sapiens, UniProt Q99594); assay: TEAD3:YAP50-100 protein-protein interaction HTRF (TR-FRET) assay; conditions: His-tagged TEAD YAP binding domain (aa 217-447), biotinylated YAP peptide aa 50-100; 30 min pre-incubation, 60 min at room temperature; read-out: TEAD3 YAP50-100 HTRF WuXi EC50
TEAD3 YAP50-100, sequence (Q99594 216-435 limits assumed): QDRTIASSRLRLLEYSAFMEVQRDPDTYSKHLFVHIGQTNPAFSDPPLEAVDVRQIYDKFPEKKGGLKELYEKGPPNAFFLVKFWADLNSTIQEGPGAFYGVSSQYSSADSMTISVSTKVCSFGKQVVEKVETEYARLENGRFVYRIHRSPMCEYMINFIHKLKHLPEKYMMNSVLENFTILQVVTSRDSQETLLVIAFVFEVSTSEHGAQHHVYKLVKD
Method: as §1

TEAD2 YAP50-100, sequence (Q15562 217-447): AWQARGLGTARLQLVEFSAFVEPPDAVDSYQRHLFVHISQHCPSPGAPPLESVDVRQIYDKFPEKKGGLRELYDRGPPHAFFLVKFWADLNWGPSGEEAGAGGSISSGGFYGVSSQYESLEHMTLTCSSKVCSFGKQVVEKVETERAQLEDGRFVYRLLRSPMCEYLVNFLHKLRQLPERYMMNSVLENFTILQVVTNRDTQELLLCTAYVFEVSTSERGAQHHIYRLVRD

Compound	EC50 (TEAD2 YAP50-100) [nM]	EC50 (TEAD3 YAP50-100) [nM]
CCOC(=O)c1cnn2c(=O)cc(-c3ccc(N(C)CC4CC4)cc3)[nH]c12 [Example 32, Ethyl 5-(4-((cyclopropylmethyl)(methyl)amino)phenyl)-7-oxo-4,7-dihydro pyrazolo[1,5-a]pyrimidine-3-carboxylate]	3700	175
CCOC(=O)c1cnn2c(=O)cc(-c3ccc(C4(c5ccccc5)CC4)cc3)[nH]c12 [Example 33, Ethyl 7-oxo-5-(4-(1-phenylcyclopropyl)phenyl)-4,7-dihydropyrazolo[1,5-a]pyrimidine-3-carboxylate]	2190	765
CCOC(=O)c1cnn2c(=O)cc(-c3ccc(-c4ccccc4)cc3)[nH]c12 [Example 34, Ethyl 5-([1,1^1-biphenyl]-4-yl)-7-oxo-4,7-dihydropyrazolo[1,5-a]pyrimidine-3-carboxylate]	1030	41
O=C(c1cnn2c(=O)cc(-c3ccc(-c4ccccc4)cc3)[nH]c12)N1CCC1 [Example 35, 5-([1,1′-Biphenyl]-4-yl)-3-(azetidine-1-carbonyl)pyrazolo[1,5-a]pyrimidin-7(4H)-one]	1630	95
CN(C)C(=O)c1cnn2c(=O)cc(-c3ccc(C4CCC4)cc3)[nH]c12 [Example 36, 5-(4-Cyclobutylphenyl)-N,N-dimethyl-7-oxo-4,7-dihydropyrazolo[1,5-a]pyrimidine-3-carboxamide]	1870	28
N#C[C@@H]1CCN(C(=O)c2cnn3c(=O)cc(-c4ccc(C5CCCCC5)cc4)[nH]c23)C1 [Example 37, (R)-1-(5-(4-Cyclohexylphenyl)-7-oxo-4,7-dihydropyrazolo[1,5-a]pyrimidine-3-carbonyl)pyrrolidine-3-carbonitrile]	8.79	52.2
O=C(c1cnn2c(=O)cc(-c3ccc(C4CCCCC4)cc3)[nH]c12)N1CC(C(F)F)C1 [Example 38, 5-(4-Cyclohexylphenyl)-3-(3-(difluoromethyl)azetidine-1-carbonyl)pyrazolo[1,5-a]pyrimidin-7(4H)-one]	12	27
O=C(c1cnn2c(=O)cc(-c3ccc(C4CCCCC4)cc3)[nH]c12)N1CC(C(F)(F)F)C1 [Example 39, 5-(4-Cyclohexylphenyl)-3-(3-(trifluoromethyl)azetidine-1-carbonyl)pyrazolo[1,5-a]pyrimidin-7(4H)-one]	295	405
CC1(F)CN(C(=O)c2cnn3c(=O)cc(-c4ccc(C5CCCCC5)cc4)[nH]c23)C1 [Example 40, 5-(4-Cyclohexylphenyl)-3-(3-fluoro-3-methylazetidine-1-carbonyl)pyrazolo[1,5-a]pyrimidin-7(4H)-one]	12.5	18.5
O=C(c1cnn2c(=O)cc(-c3ccc(C4CCCCC4)cc3)[nH]c12)N1CC(CF)C1 [Example 41, 5-(4-Cyclohexylphenyl)-3-(3-(fluoromethyl)azetidine-1-carbonyl)pyrazolo[1,5-a]pyrimidin-7(4H)-one]	4.5	10
O=C(c1cnn2c(=O)cc(-c3ccc(C4CCCCC4)cc3)[nH]c12)N1CCC(F)(F)C1 [Example 42, 5-(4-Cyclohexylphenyl)-3-(3,3-difluoropyrrolidine-1-carbonyl)pyrazolo[1,5-a]pyrimidin-7(4H)-one]	14.5	39.5
O=C(c1cnn2c(=O)cc(-c3ccc(C4CCCCC4)cc3)[nH]c12)N1CC[C@@H]1CF [Example 43, (R)-5-(4-cyclohexylphenyl)-3-(2-(fluoromethyl)azetidine-1-carbonyl)pyrazolo[1,5-a]pyrimidin-7(4H)-one]	22.5	28
N#CC1CN(C(=O)c2cnn3c(=O)cc(-c4ccc(C5CCCCC5)cc4)[nH]c23)C1 [Example 44]	5.85	13
